From PubChem BioAssay (NCI)
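Values below derive from 48-hour exposures of cells grown in 96-well plates, with endpoints linearly interpolated between the two concentrations bracketing the appropriate inhibition level. TGI: total growth inhibition.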

What was measured:
Experiment in all cases: DTP human tumour cell line panel, 48 h
ACHN renal = test system: ACHN renal
PC-3 prostate = test system: PC-3 prostate
HS 578T breast = test system: HS 578T breast
SK-MEL-28 melanoma = test system: SK-MEL-28 melanoma
UO-31 renal = test system: UO-31 renal
SF-268 CNS = test system: SF-268 CNS
SNB-19 CNS = test system: SNB-19 CNS
LOX IMVI melanoma = test system: LOX IMVI melanoma
IGROV1 ovarian = test system: IGROV1 ovarian
OVCAR-5 ovarian = test system: OVCAR-5 ovarian
UACC-257 melanoma = test system: UACC-257 melanoma
SK-OV-3 ovarian = test system: SK-OV-3 ovarian
HCT-116 colon = test system: HCT-116 colon
M14 melanoma = test system: M14 melanoma
HCC-2998 colon = test system: HCC-2998 colon
K-562 leukemia = test system: K-562 leukemia
MALME-3M melanoma = test system: MALME-3M melanoma
786-0 renal = test system: 786-0 renal
BT-549 breast = test system: BT-549 breast
TK-10 renal = test system: TK-10 renal
SF-295 CNS = test system: SF-295 CNS
OVCAR-4 ovarian = test system: OVCAR-4 ovarian
MDA-N = test system: MDA-N
KM12 colon = test system: KM12 colon
RPMI-8226 leukemia = test system: RPMI-8226 leukemia
HOP-62 NSCLC = test system: HOP-62 NSCLC
MCF7 breast = test system: MCF7 breast
U251 CNS = test system: U251 CNS
SF-539 CNS = test system: SF-539 CNS
DU-145 prostate = test system: DU-145 prostate
SK-MEL-2 melanoma = test system: SK-MEL-2 melanoma
MOLT-4 leukemia = test system: MOLT-4 leukemia
OVCAR-8 ovarian = test system: OVCAR-8 ovarian
EKVX NSCLC = test system: EKVX NSCLC
CAKI-1 renal = test system: CAKI-1 renal
SNB-75 CNS = test system: SNB-75 CNS
UACC-62 melanoma = test system: UACC-62 melanoma
NCI-H226 lung = test system: NCI-H226 lung
NCI/ADR-RES ovarian = test system: NCI/ADR-RES ovarian
A498 renal = test system: A498 renal
HOP-92 NSCLC = test system: HOP-92 NSCLC
MDA-MB-435 = test system: MDA-MB-435
OVCAR-3 ovarian = test system: OVCAR-3 ovarian
SW-620 colon = test system: SW-620 colon
RXF 393 renal = test system: RXF 393 renal
T-47D breast = test system: T-47D breast
NCI-H23 lung = test system: NCI-H23 lung
HL-60(TB) leukemia = test system: HL-60(TB) leukemia
SK-MEL-5 melanoma = test system: SK-MEL-5 melanoma
NCI-H460 lung = test system: NCI-H460 lung
NCI-H522 lung = test system: NCI-H522 lung
COLO 205 colon = test system: COLO 205 colon
MDA-MB-231 breast = test system: MDA-MB-231 breast
HCT-15 colon = test system: HCT-15 colon
A549 NSCLC = test system: A549 NSCLC
SN12C renal = test system: SN12C renal
HT29 colon = test system: HT29 colon

## CCN(CC)C(=S)SC(=S)N(CC)CC
ACHN renal
  TGI: > 100 µM
PC-3 prostate
  TGI: > 100 µM
HS 578T breast
  TGI: > 100 µM
SK-MEL-28 melanoma
  TGI: > 100 µM
UO-31 renal
  TGI: > 76.3 µM
SF-268 CNS
  TGI: > 100 µM
SNB-19 CNS
  TGI: > 100 µM
LOX IMVI melanoma
  TGI: 58.9 µM
IGROV1 ovarian
  TGI: > 100 µM
OVCAR-5 ovarian
  TGI: > 100 µM
UACC-257 melanoma
  TGI: > 100 µM
SK-OV-3 ovarian
  TGI: > 100 µM
HCT-116 colon
  TGI: > 58.3 µM
M14 melanoma
  TGI: > 100 µM
HCC-2998 colon
  TGI: > 100 µM
K-562 leukemia
  TGI: > 100 µM
MALME-3M melanoma
  TGI: > 58.4 µM
786-0 renal
  TGI: 56.3 µM
BT-549 breast
  TGI: 77.4 µM
TK-10 renal
  TGI: > 100 µM
SF-295 CNS
  TGI: > 100 µM
OVCAR-4 ovarian
  TGI: > 100 µM
MDA-N
  TGI: > 100 µM
KM12 colon
  TGI: 64.2 µM
RPMI-8226 leukemia
  TGI: 57.4 µM
HOP-62 NSCLC
  TGI: > 100 µM
MCF7 breast
  TGI: > 100 µM
U251 CNS
  TGI: > 100 µM
SF-539 CNS
  TGI: > 100 µM
DU-145 prostate
  TGI: > 100 µM
SK-MEL-2 melanoma
  TGI: > 100 µM
MOLT-4 leukemia
  TGI: > 72.8 µM
OVCAR-8 ovarian
  TGI: > 100 µM
EKVX NSCLC
  TGI: > 100 µM
CAKI-1 renal
  TGI: 99.7 µM
SNB-75 CNS
  TGI: 99.2 µM
UACC-62 melanoma
  TGI: > 93.1 µM
NCI-H226 lung
  TGI: > 100 µM
NCI/ADR-RES ovarian
  TGI: > 100 µM
A498 renal
  TGI: > 100 µM
HOP-92 NSCLC
  TGI: > 87.3 µM
MDA-MB-435
  TGI: > 100 µM
OVCAR-3 ovarian
  TGI: > 94.4 µM
SW-620 colon
  TGI: > 100 µM
RXF 393 renal
  TGI: > 100 µM
T-47D breast
  TGI: > 100 µM
NCI-H23 lung
  TGI: > 80.6 µM
HL-60(TB) leukemia
  TGI: > 100 µM
SK-MEL-5 melanoma
  TGI: > 46.5 µM
NCI-H460 lung
  TGI: > 100 µM
NCI-H522 lung
  TGI: 18.2 µM
COLO 205 colon
  TGI: 45 µM
MDA-MB-231 breast
  TGI: > 92.1 µM
HCT-15 colon
  TGI: > 100 µM
A549 NSCLC
  TGI: > 100 µM
SN12C renal
  TGI: > 100 µM

## CCNc1nc(N)c(C(=O)c2cccs2)s1
ACHN renal
  TGI: > 100 µM
PC-3 prostate
  TGI: > 100 µM
HS 578T breast
  TGI: > 100 µM
SK-MEL-28 melanoma
  TGI: > 100 µM
UO-31 renal
  TGI: > 100 µM
SF-268 CNS
  TGI: > 100 µM
SNB-19 CNS
  TGI: > 100 µM
LOX IMVI melanoma
  TGI: > 100 µM
IGROV1 ovarian
  TGI: 50.3 µM
OVCAR-5 ovarian
  TGI: > 100 µM
UACC-257 melanoma
  TGI: > 100 µM
SK-OV-3 ovarian
  TGI: > 100 µM
HCT-116 colon
  TGI: > 100 µM
M14 melanoma
  TGI: > 100 µM
HCC-2998 colon
  TGI: > 100 µM
K-562 leukemia
  TGI: > 100 µM
MALME-3M melanoma
  TGI: > 100 µM
786-0 renal
  TGI: > 100 µM
BT-549 breast
  TGI: > 100 µM
TK-10 renal
  TGI: > 100 µM
HT29 colon
  TGI: 72.4 µM
SF-295 CNS
  TGI: > 100 µM
OVCAR-4 ovarian
  TGI: 77.6 µM
MDA-N
  TGI: > 100 µM
KM12 colon
  TGI: 46.7 µM
HOP-62 NSCLC
  TGI: > 100 µM
MCF7 breast
  TGI: > 100 µM
U251 CNS
  TGI: > 100 µM
SF-539 CNS
  TGI: 46.4 µM
DU-145 prostate
  TGI: > 100 µM
SK-MEL-2 melanoma
  TGI: 45 µM
MOLT-4 leukemia
  TGI: 60.7 µM
OVCAR-8 ovarian
  TGI: > 100 µM
EKVX NSCLC
  TGI: 62.8 µM
CAKI-1 renal
  TGI: 59.9 µM
SNB-75 CNS
  TGI: 36.6 µM
UACC-62 melanoma
  TGI: 51.8 µM
NCI-H226 lung
  TGI: 76 µM
NCI/ADR-RES ovarian
  TGI: > 100 µM
A498 renal
  TGI: 82.6 µM
HOP-92 NSCLC
  TGI: > 100 µM
MDA-MB-435
  TGI: 82.6 µM
OVCAR-3 ovarian
  TGI: > 100 µM
SW-620 colon
  TGI: > 100 µM
RXF 393 renal
  TGI: 20 µM
T-47D breast
  TGI: 84.3 µM
NCI-H23 lung
  TGI: 63.9 µM
HL-60(TB) leukemia
  TGI: 21.9 µM
SK-MEL-5 melanoma
  TGI: 44.8 µM
NCI-H460 lung
  TGI: > 100 µM
NCI-H522 lung
  TGI: > 100 µM
COLO 205 colon
  TGI: 22.8 µM
MDA-MB-231 breast
  TGI: > 100 µM
HCT-15 colon
  TGI: > 100 µM
A549 NSCLC
  TGI: > 100 µM
SN12C renal
  TGI: > 100 µM
